According to patent US20040038950A1, “Pharmaceutical composition for treating IL-1 related diseases or disorders” (priority 2002, published 2004):

Legend:
type II collagen mRNA = assay: Osteoarthritic rabbit model (ACLT), intraarticular injection, RT-PCR of type II collagen; type: in vivo; conditions: rabbit ACLT knee, intraarticular once a week for 5 weeks
Procedure: (§1) Mature New Zealand White rabbits underwent bilateral anterior cruciate ligament transection (ACLT). ACLT was performed using a medial arthrotomy method. Postoperatively the animals were permitted cage (60 cm×60 cm×40 cm) activity without immobilization. The right knees received via intraartiticular injection DHEA, DHEA-pyruvate or DHEA+HA, 4 weeks after ACLT and once a week for 5 weeks. The left knees received 0.3 ml of intraarticular injection with control solution (carrier solution). After 9 weeks from ACLT, the animas were sacrificed.
(§2) Synovium (entire tissue) around the infrapatellar fat pads and cartilage tissue from the femoral condyle and the tibial plateau were harvested. The subsequent experimental procedure was the same as described in Test Example IV.

TIMP-1 mRNA = assay: Osteoarthritic rabbit model (ACLT), intraarticular injection, RT-PCR of TIMP-1; type: in vivo; conditions: rabbit ACLT knee, intraarticular once a week for 5 weeks
Procedure: as §1, §2

MMP-3 mRNA = assay: Effect of IL-1β on MMP-3 mRNA expression in chondrocyte culture, RT-PCR; type: cell-based, human; conditions: 100 μg/ml of IL-1β, 3 days
Procedure: (§3) Sixteen hours prior to a treatment, the complete culture medium was replaced with a serum-free medium. Chondrocyte alginate bead cultures were then treated with IL-1β ([…], (Calbiochem) and DHEA (0, 10, 50 or 100 μM) for 3 days.
(§4) Total RNA from chondrocytes was extracted using RNeasy Mini Kit (QIAGEN). Reverse transcription from 1 μg of total RNA was conducted using First Strand cDNA Synthesis Kit (MBI Fermentas) according to manufacturer's recommendation with random hexamers. The resulting cDNA was then amplified by polymerase chain reaction using AccuPower PCR Premix (Bioneer, Korea) in a final volume of 20 μl using three thermocycler temperatures (30 sec at […], 30 sec at 60° C., and 30 sec at […]). All reactions were determined to be in the linear range of amplification with the cycle number ranging from 14 to 30. The PCR products were analyzed by separation on a 2% agarose gel followed by ethidium bromide staining. Following electrophoresis, photographs were taken and analyzed using a densitometric program (TINA; Raytest Isotopenmeβgerate, Germany). Integrated density values for the genes in question were then normalized to the glyceraldehyde-3-phosphate dehydrogenase (GAPDH) values for a semiquantitative assessment. After normalizing with respect to GAPDH, percentage increase or decrease was determined. Each experiment was repeated at least three times. […]

MMP-1 mRNA = assay: Effect of IL-1β on MMP-1 mRNA expression in chondrocyte culture, RT-PCR; type: cell-based, human; conditions: 1000 μg/ml of IL-1β, 3 days
Procedure: as §3, §4

Row | Compound | expression of type II collagen (type II collagen mRNA) | expression of TIMP-1 (TIMP-1 mRNA) | MMP-3 mRNA, increase (MMP-3 mRNA) [%] | MMP-1 mRNA, increase (MMP-1 mRNA) [%]
1 | CC(=O)C(=O)O[C@H]1CC[C@@]2(C)C(=CC[C@@H]3[C@@H]2CC[C@]2(C)C(=O)CC[C@@H]32)C1 [DHEA-pyruvate, DHEA-Pyruvate] | increased | increased | – | –
2 | IL-1β: recombinant human interleukin-1β (Calbiochem), used to induce MMP mRNA in chondrocytes | – | – | 310 | 470
